Source: patent US20240041898A9, “NEUROSTEROIDS AND ENANTIOMERS THEREOF FOR THE PREVENTION AND TREATMENT OF NEURODEGENERATIVE CONDITIONS” (priority 2019, published 2024)
“And” between values parts separate entries of the source, which are not always exact repeats. Identical values can stand only once.

What was measured:
Type in all cases: cell-based, rat
[1] = tested on: retinal ganglion cells (RGCs); experiment: Ex vivo pressure-loaded whole mounted retinas, NeuN-positive RGC survival; conditions: 75 mmHg, 1 μM; for RGC Survival (number of NeuN-positive cells), individual areas 1-5: single values
Method: (§1) Rat ex vivo Eyecup Preparation—Rat ex vivo eyecups were prepared from 28-32 day old male Sprague-Dawley rats (Charles River Laboratories International Inc., Wilmington, MA). The anterior half of the enucleated eyes was carefully removed to make eyecup preparations. Eyecups were placed at the bottom of a 100 ml glass beaker filled with aCSF (artificial cerebrospinal fluid) containing (in mM): 124 NaCl, 5 KCl, 2 MgSO4, 2 CaCl2, 1.25 NaH2PO4, 22 NaHCO3, and 10 glucose, and incubated at 30° C. for 24 hours using a closed pressure-loading system (FIG. 1C). pH was maintained at 7.35 to 7.40. In the closed-pressure system, a glass beaker with the eyecup was placed at the bottom of an acrylic pressure chamber (2,000 ml volume). A 95% O2-5% CO2 gas mixture was delivered through disposable plastic tubing with an infusion valve and a control dial on the lid of the pressure chamber and an air filter (Cat #SLGP033RS, Merck Millipore, Billerica, MA). The plastic tubing delivering the gas terminated 1 cm above the bottom of the beaker.
(§2) Acutely prepared eyecups were incubated in gassed aCSF for at least 1 h at 30° C. before pressure loading. In some experiments, AlloP (1 μM), ent-AlloP (1 μM), and 3-MA (10 mM) were dissolved in aCSF at the time of experiment and administered by bath perfusion. Eyecup preparations were treated with these drugs for 1 h at 30° C. before pressure loading. For pressure loading, the 95% O2-5% CO2 gas mixture was infused until the pressure reading given by a manometer reached the appropriate level. The pressure was then locked by adjusting the control dial of the effusion valve, and monitored continuously for 24 h at 30° C.
Preparation of whole mounted retinas and immunostaining—The retina was carefully detached from the eye by making cuts along the ora serrata and optic nerve. […] Each quadrant was analyzed using a 1 mm^2 frame, and counted using Image-Pro Plus software. […] RGC counts were analyzed using Image-Pro Plus software. NeuN positive RGCs were determined as the measurement of 5 different areas from three eyes per experimental condition.

[2] = tested on: nerve fiber layer (NFL) of retina; experiment: Ex vivo pressure-loaded retinas, electron microscopy of autophagosomes (AP) and degenerative autophagic vacuoles (DAV); conditions: 75 mmHg, 1 μM; for Autophagosomes (AP) in the NFL, Total / Degenerative autophagic vacuoles (DAV) in the NFL, Total: Total of 10 areas of 25 μm2; for Autophagosomes (AP)/25 μm2 in the NFL, individual areas 1-10 / Degenerative autophagic vacuoles (DAV)/25 μm2 in the NFL, individual areas 1-10: single values
Method: as §1, §2
Electron Microscopy—Retinal specimens were trimmed to a smaller size, and ultrathin sections (75 nm) were cut with a diamond knife and suspended over formvar-coated slot grids (1×2 mm opening). The sections were stained with uranyl acetate and lead citrate and viewed in a transmission electron microscope (H-7650, Hitachi High-Technologies Corp., Tokyo, Japan). Numbers of AP and DAV inside NFLs and axons were determined as the sum in 10 different areas of 25 μm^2 each from each sample. The analysis was performed in three eyes per experimental condition.

p62 = experiment: Ex vivo pressure-loaded retinas, Western blot of p62; conditions: ex vivo, 75 mmHg; for p62 expression (FIG. 2S), individual experiments 1-5: 1 μM, relative units, 10 mmHg = 1.00
Method: as §1, §2
Western Blot Analysis—At the end of each experiment, the posterior segments of the eye were placed on a flat cutting surface and immersed in ice-cold aCSF. With a surgical blade, the retina was carefully and gently detached from the sclera with a fine forceps. The isolated retinas were frozen at −80° C. Retinas were then homogenized in lysis buffer solution (CelLytic MT; Sigma-Aldrich, Inc.) with protease inhibitor cocktail (Sigma-Aldrich, Inc.), prepared according to the manufacturer's instructions. The tissue extracts were ultrasonicated and clarified by centrifugation at 12,000 g for 20 minutes at 4° C. The protein concentrations in supernatants were assayed (Quant-iT assay kit; Invitrogen Corp., Carlsbad, CA). Twenty micrograms of retinal extract were subjected to SDS polyacrylamide gel electrophoretic analysis. The proteins were then transferred to a PVDF. Immunoblots by polyclonal rabbit anti-LC3B antibody (MBL Life Science) or anti-SQSTMl/p62 mouse monoclonal antibody (Abcam) were visualized using WesternBreeze Chemiluminescent Immunodetection system (Invitrogen) with the exposure time to autoradiograph film (MXJB Plus; Kodak, Rochester, NY) adjusted to avoid over- or undersaturation. Precision Plus Protein™ Western Standards (Bio-Rad, Hercules, CA) followed by Precision Protein™ strep Tactin-AP conjugate (Bio-Rad) was used for a molecular marker of LC3. […]
The density of Western blot bands was quantified using Image-Pro Plus software. Quantification was adjusted to protein expression at 10 mmHg after normalization to the β-actin band at each pressure, and the relative gray-scale value was calculated by densitometric analysis of the obtained bands. […] Differences in expression levels were evaluated using Wilcoxon Rank-Sum Test, Tukey's or Dunnett's multiple comparison test. […]

SMILES	RGC Survival (number of NeuN-positive cells), individual areas 1-5 [1]	RGC axon swelling, electron microscopy [2]	Autophagosomes (AP) in the NFL, Total [2]	Degenerative autophagic vacuoles (DAV) in the NFL, Total [2]	Autophagosomes (AP)/25 μm2 in the NFL, individual areas 1-10 [2]	Degenerative autophagic vacuoles (DAV)/25 μm2 in the NFL, individual areas 1-10 [2]	p62 expression after 3-MA treatment (FIG. 3H), Average (p62; 1 μM ent-AlloP, 10 mM 3-MA, relative, ent-AlloP = 1.00, Average of 4)	p62 expression after 3-MA treatment (FIG. 3H), individual experiments 1-4 (p62; 1 μM ent-AlloP, 10 mM 3-MA, relative, ent-AlloP = 1.00, single values)	p62 expression (FIG. 2S), individual experiments 1-5 (p62; single values)	RGC Survival (number of NeuN-positive cells), Average ([1]; Average of 5)
CC(=O)[C@@H]1CC[C@@H]2[C@H]3CC[C@@H]4C[C@@H](O)CC[C@@]4(C)[C@@H]3CC[C@]21C [ent-AlloP, ent-allopregnanolone]	2120 per square millimeter and 2280 per square millimeter and 2000 per square millimeter and 1840 per square millimeter and 1860 per square millimeter	protected RGC axons from high pressure	1	22	0 /25 μm2 (9×) and 1 /25 μm2	1 /25 μm2 (3×) and 2 /25 μm2 (4×) and 4 /25 μm2 (2×) and 3 /25 μm2	1.00	1.00	0.92 and 0.40 and 1.00 and 0.28 and 1.08	–
CC(=O)[C@H]1CC[C@H]2[C@@H]3CC[C@H]4C[C@H](O)CC[C@]4(C)[C@H]3CC[C@]12C [AlloP, allopregnanolone]	2220 per square millimeter and 2240 per square millimeter and 1860 per square millimeter and 2260 per square millimeter and 1840 per square millimeter	protected RGC axons from high pressure	16	8	0 /25 μm2 (2×) and 2 /25 μm2 (6×) and 3 /25 μm2 and 1 /25 μm2	0 /25 μm2 (4×) and 1 /25 μm2 (5×) and 3 /25 μm2	–	–	1.96 and 2.18 and 2.05 and 0.84 and 2.81	2084.0 per square millimeter
